# Assay results from patent publication US7955618B2, “Composition for treatment of inflammatory disorders” (Enceladus Pharmaceuticals B.V., priority 2001, dated 2011).
# Assays:
# [1] = test system: AT-EAE (T cells and macrophages in spinal cord); details: 50 mg/kg i.v. at 18 h and 6 h before perfusion
# Experimental: Adoptive Transfer Experimental Autoimmune Encephalomyelitis (AT-EAE) was induced in female Lewis rats by intravenous injection of 10^7 MBP-specific T cells.
# 10 mg/kg prednisolone phosphate containing liposomes, as prepared according to Example I, were applied intravenously at 42 hours and 18 hours prior to sacrifice. Another group received 50 mg/kg methylprednisolone intravenously at 18 hours and 6 hours before perfusion. Control rats received empty liposomes and/or saline at equivalent time points.
# T cells or macrophages in spinal cord were detected immunohistochemically in paraffin embedded tissue and apoptosis was assessed by the TUNEL assay and by morphological criteria. Student t test for grouped data was used for statistical analysis.
# [2] = test system: rat adjuvant arthritis model (paw inflammation); assay: Rat adjuvant arthritis model, visual paw inflammation score; format: in vivo, Lewis rats; details: for average inflammation score: day 15 until day 21, 6.5±0.56 on day 14, daily saline max 10.6±1.3 on day 20; for effect on course of the disease (paw inflammation): single injection, doses equal to liposomal drug, p>0.05 Kruskall-Wallis
# Experimental: Lewis rats were immunized subcutaneously at the tail base with heat-inactivated Mycobacterium tuberculosis in incomplete Freund's adjuvant.
# Assessment of the disease was performed by visually scoring paw inflammation severity, maximum score 4 per paw, and measuring disease-induced body weight loss. […] Rats were treated when the average score >6 (at day 14 or 15 after disease induction).
Compound,clinical score ([1]; controls 3.2±0.3),macrophage infiltration in spinal cord ([1]; controls 78±37) [macrophages/mm^2],T cell infiltration in spinal cord ([1]; controls 115±51) [T cells/mm^2],"rate of T cell apoptosis in spinal cord tissue ([1]; mean±SD, control 16.1±4.3%) [%]",average inflammation score ([2]; 10 mg/kg daily for 7 days),average inflammation score ([2]; 20 mg/kg daily for 7 days),effect on course of the disease (paw inflammation) [2],effect on course of the disease (paw inflammation) ([2]; listed as unencapsulated prednisolone phosphate)
"C[C@H]1C[C@@H]2[C@H]([C@@H](O)C[C@@]3(C)[C@H]2CC[C@]3(O)C(=O)CO)[C@@]2(C)C=CC(=O)C=C12 [Methylprednisolone, methylprednisolone]",3.2±0.3,66±25,96±19,30.8±8.0,–,–,–,–
prednisolone disodium phosphate [Unencapsulated prednisolone phosphate],–,–,–,–,around 5.0,around 5.0,did not significantly alter the course of the disease,No effect
